Literature values as cited in patent US10299493B2, “Dietary supplement compositions with enhanced delivery matrix, gummies, chocolates, atomizers and powders containing same, and methods of making same” (priority 2013, dated 2019).

Settings: temperature of 20° C.

For C/C=C/C=C/C(=O)[O-].[K+] [Potassium sorbate], the solubility in water is given as 58.2%.
